Laboratory results: patent US9056851B2, “Thiolactone antibiotics” (priority 2011, dated 2015)
In brackets after ≈: the same amount, converted by molar mass. Where two headings read alike, the source gives them in different places.

Assays:
Y. pestis A1122 = test: microbe, parasite or virus in culture; type: cell-based; settings: Yersinia pestis, A1122, read-out: MIC (μg/ml) Y. pestis
B. thialandensis Bt38 = test: MIC against B. thialandensis; type: cell-based; settings: read-out: MIC (μg/ml) B. thialandensis Bt.38 (efflux^−)
M. tuberculosis H37Rv = test: MIC against M. tuberculosis; type: cell-based; settings: Mycobacterium tuberculosis, read-out: MIC (μg/ml) M. tb (MIC99)
S. aureus RN4220 = test: MIC against S. aureus RN4220 (MSSA); type: cell-based; settings: Staphylococcus aureus
F. tularensis LVS = test: microbe, parasite or virus in culture; type: cell-based; settings: Francisella tularensis, read-out: MIC (μg/ml) F. tu
S. aureus BAA1762 = test: MIC against S. aureus BAA1762 (MRSA); type: cell-based; settings: Staphylococcus aureus, read-out: MIC (μg/ml) Staph. aureus BAA1762 MRSA
B. pseudomallei Bp82z66 = test: microbe, parasite or virus in culture; type: cell-based; settings: Burkholderia pseudomallei, BP82Z66, read-out: MIC (μg/ml) B. pseudomallei
[1] = in vivo; cited from earlier work
E. coli NIHJ = settings: cited from earlier work
E. coli No9 = settings: cited from earlier work
Serratia marcescens [2] = settings: urinary tract and oral infections; cited from earlier work
Klebsiella pneumoniae [3] = settings: cited from earlier work
M. tuberculosis = settings: cited from earlier work
Salmonella paratyphi = settings: cited from earlier work
Shigella sonnei T1 = settings: cited from earlier work
[4] = rats, orally and by intramuscular injection; cited from earlier work
mammalian FAS-I enzymes = settings: selectivity versus FAS-II KAS enzymes; cited from earlier work
Pasteurella multocida = settings: cited from earlier work
Klebsiella pneumoniae [5] = settings: urinary tract and oral infections; cited from earlier work
bacteria of Table 4 = settings: broad range of bacteria (Table 4); cited from earlier work
Shigella flexneri 2b T1 = settings: cited from earlier work
Staphylococcus aureus = settings: cited from earlier work
E. coli 11 = settings: cited from earlier work
M. smegmatis MC^2155 = test: MIC against M. smegmatis; type: cell-based; settings: Mycolicibacterium smegmatis, MC^2155, read-out: MIC (μg/ml) M. smeg
Salmonella typhi = settings: cited from earlier work
[6] = in vivo; cited from earlier work; remark: listed apart in the source
Serratia marcescens [7] = settings: cited from earlier work
Salmonella enterides T-1 = settings: cited from earlier work
[8] = MIC90, read-out: MIC (μg/ml) Staph. aureus RN4220 MSSA

Work on `C=C/C(C)=C/[C@@]1(C)SC(=O)C(CCCCn2cc(CNC(=O)c3ccc(NS(=O)(=O)c4ccc(F)cc4)cc3)nn2)=C1O` [TLM34] yielded an MIC (Y. pestis A1122) of 250 µg/mL (≈ 400 µM), an MIC (B. thialandensis Bt38) of 250 µg/mL (≈ 400 µM) and an MIC99 (M. tuberculosis H37Rv; MIC99, H37Rv) of 12.5 µg/mL (≈ 20 µM). It also gave an MIC (S. aureus RN4220; [8]) greater than 64 µg/mL, an MIC (F. tularensis LVS) of 250 µg/mL (≈ 400 µM) and an MIC (S. aureus BAA1762; MIC90) greater than 100 µg/mL.

In the case of `C=C/C(C)=C/[C@@]1(C)SC(=O)C(C(C)=O)=C1O` [TLM35], the MIC (B. pseudomallei Bp82z66) is reported as 155 µg/mL (≈ 649 µM), the MIC99 (M. tuberculosis H37Rv; MIC99, H37Rv) is reported as 12.5 µg/mL (≈ 52.5 µM) and the MIC (S. aureus RN4220; [8]) is reported as 64 µg/mL (≈ 269 µM). The MIC (F. tularensis LVS) was 8.78 µg/mL (≈ 36.8 µM) and the MIC (S. aureus BAA1762; MIC90) was 32 µg/mL (≈ 134 µM).

For `C=C/C(C)=C/[C@@]1(C)SC(=O)C(C(=O)C(F)(F)F)=C1O` [TLM36], the MIC (B. pseudomallei Bp82z66) was 160 µg/mL (≈ 547 µM), the MIC99 (M. tuberculosis H37Rv; MIC99, H37Rv) was greater than 100 µg/mL and the MIC (S. aureus RN4220; [8]) was greater than 64 µg/mL. It also gave an MIC (F. tularensis LVS) of 98.1 µg/mL (≈ 336 µM) and an MIC (S. aureus BAA1762; MIC90) of 64 µg/mL (≈ 219 µM).

`C=C/C(C)=C/[C@@]1(C)SC(=O)C(C(=O)OC)=C1O` [TLM37] showed an MIC (B. pseudomallei Bp82z66) of 160 µg/mL (≈ 631 µM), an MIC99 (M. tuberculosis H37Rv; MIC99, H37Rv) of 100 µg/mL (≈ 393 µM) and an MIC (S. aureus RN4220; [8]) greater than 64 µg/mL. For the same compound, the MIC (F. tularensis LVS) was 58.2 µg/mL (≈ 229 µM) and the MIC (S. aureus BAA1762; MIC90) was greater than 64 µg/mL.

`C=C/C(C)=C/[C@@]1(C)SC(=O)C(C(=O)CCC)=C1O` [TLM38] gave an MIC (B. pseudomallei Bp82z66) of 171 µg/mL (≈ 644 µM), an MIC99 (M. tuberculosis H37Rv; MIC99, H37Rv) of 12.5 µg/mL (≈ 46.9 µM) and an MIC (S. aureus RN4220; [8]) of 16 µg/mL (≈ 60.1 µM). The MIC (F. tularensis LVS) was 1.82 µg/mL (≈ 6.83 µM) and the MIC (S. aureus BAA1762; MIC90) was 32 µg/mL (≈ 120 µM).

`C=C/C(C)=C/[C@@]1(C)SC(=O)C(C(=O)c2ccccc2C(=O)O)=C1O` [TLM39] showed an MIC (B. pseudomallei Bp82z66) of 155 µg/mL (≈ 449 µM), an MIC99 (M. tuberculosis H37Rv; MIC99, H37Rv) greater than 100 µg/mL and an MIC (S. aureus RN4220; [8]) of 32 µg/mL (≈ 92.9 µM). It also gave an MIC (F. tularensis LVS) of 16 µg/mL (≈ 46.4 µM) and an MIC (S. aureus BAA1762; MIC90) of 32 µg/mL (≈ 92.9 µM).

In the case of `C=C/C(C)=C/[C@@]1(C)SC(=O)C=C1OCC(=O)NCCN=[N+]=[N-]` [TLM40], the MIC (B. pseudomallei Bp82z66) is reported as greater than 256 µg/mL, the MIC99 (M. tuberculosis H37Rv; MIC99, H37Rv) is reported as greater than 100 µg/mL and the MIC (S. aureus RN4220; [8]) is reported as greater than 64 µg/mL. The MIC (F. tularensis LVS) was 39.1 µg/mL (≈ 121 µM) and the MIC (S. aureus BAA1762; MIC90) was greater than 64 µg/mL.

In the case of `C=C/C(C)=C/[C@@]1(C)SC(=O)C=C1OCC(=O)NCCNC(=O)OC(C)(C)C` [TLM41], the MIC (B. pseudomallei Bp82z66) is reported as greater than 256 µg/mL, the MIC99 (M. tuberculosis H37Rv; MIC99, H37Rv) is reported as greater than 100 µg/mL and the MIC (S. aureus RN4220; [8]) is reported as greater than 64 µg/mL. For the same compound, the MIC (F. tularensis LVS) was 54.5 µg/mL (≈ 137 µM) and the MIC (S. aureus BAA1762; MIC90) was greater than 64 µg/mL.

In the case of `C=C/C(C)=C/[C@@]1(C)SC(=O)C=C1OCC(=O)NCCn1cc(CNC(=O)c2ccc(NS(=O)(=O)c3ccc(F)cc3)cc2)nn1` [TLM42], the MIC (B. pseudomallei Bp82z66) is reported as 178 µg/mL (≈ 272 µM), the MIC99 (M. tuberculosis H37Rv; MIC99, H37Rv) is reported as 100 µg/mL (≈ 153 µM) and the MIC (S. aureus RN4220; [8]) is reported as greater than 64 µg/mL. The MIC (F. tularensis LVS) was greater than 256 µg/mL and the MIC (S. aureus BAA1762; MIC90) was greater than 64 µg/mL.

`C=C/C(C)=C/[C@@]1(C)SC(=O)C(C(=O)CCCCCCCCCCCCCCC)=C1O` [TLM43] showed an MIC (B. pseudomallei Bp82z66) of 1.36 µg/mL (≈ 3.13 µM), an MIC99 (M. tuberculosis H37Rv; MIC99, H37Rv) greater than 100 µg/mL and an MIC (S. aureus RN4220; [8]) of 0.5 µg/mL (≈ 1.15 µM). The MIC (S. aureus BAA1762; MIC90) was 1 µg/mL (≈ 2.3 µM).

Compound `C=C/C(C)=C/[C@@]1(C)SC(=O)C(C(=O)CCCCN=[N+]=[N-])=C1O` [TLM44] has an MIC (S. aureus RN4220; [8]) of 16 µg/mL (≈ 49.8 µM) and an MIC (S. aureus BAA1762; MIC90) of 16 µg/mL (≈ 49.8 µM).

For `C=C/C(C)=C/[C@@]1(C)SC(=O)C(C(=O)CCCCc2ccc(-c3ccccc3)cc2)=C1O` [TLM45], the MIC (B. pseudomallei Bp82z66) was 4.58 µg/mL (≈ 10.6 µM), the MIC99 (M. tuberculosis H37Rv; MIC99, H37Rv) was 50 µg/mL (≈ 116 µM) and the MIC (S. aureus RN4220; [8]) was 0.5 µg/mL (≈ 1.16 µM). For the same compound, the MIC (F. tularensis LVS) was 0.21 µg/mL (≈ 0.485 µM) and the MIC (S. aureus BAA1762; MIC90) was 2 µg/mL (≈ 4.62 µM).

In the case of `C=C/C(C)=C/[C@@]1(C)SC(=O)C(C)=C1O` [TLM, 5R-(+)-Thiolactomycin], the MIC (Y. pestis A1122) is given as 8.09 µg/mL (≈ 38.5 µM), the toxicity [1] is given as “low toxicity” and the “MIC” value (E. coli NIHJ) is given as 200 µg/mL (≈ 951 µM). The MIC (B. pseudomallei Bp82z66) was 13.1 µg/mL (≈ 62.4 µM), the “MIC” value (E. coli No9) was 100 µg/mL (≈ 476 µM) and the protection from infection (Serratia marcescens [2]) was “provides protection”. For the same compound, the “MIC” value (Klebsiella pneumoniae [3]) was 100 µg/mL (≈ 476 µM), the “MIC” value (M. tuberculosis) was 25 µg/mL (≈ 119 µM) and the “MIC” value (Salmonella paratyphi) was 50 µg/mL (≈ 238 µM). For the same compound, the “MIC” value (Shigella sonnei T1) was 100 µg/mL (≈ 476 µM), the absorption [4] was “rapidly absorbed” and the “inhibition of mammalian FAS-I enzymes” value (mammalian FAS-I enzymes) was “does not inhibit”. The “MIC” value (Pasteurella multocida) was 0.2 µg/mL (≈ 0.951 µM), the protection from infection (Klebsiella pneumoniae [5]) was “provides protection” and the “MIC values, range over organisms” value (bacteria of Table 4) was 6 to 200 µg/mL. For the same compound, the MIC99 (M. tuberculosis H37Rv; H37RV) was 3.13 µg/mL (≈ 14.9 µM), the “MIC” value (Shigella flexneri 2b T1) was 6.3 µg/mL (≈ 30 µM) and the “MIC” value (Staphylococcus aureus) was 25 µg/mL (≈ 119 µM). The “MIC” value (E. coli 11) was 25 µg/mL (≈ 119 µM), the MIC (M. smegmatis MC^2155) was 25 µg/mL (≈ 119 µM) and the “MIC” value (Salmonella typhi) was 12.5 µg/mL (≈ 59.4 µM). For the same compound, the MIC (S. aureus RN4220; read-out: MIC (μg/ml) Staph. aureus RN4220 MSSA) was 75 µg/mL (≈ 357 µM), the bioavailability [6] was “high bioavailability” and the MIC (F. tularensis LVS) was 2.81 µg/mL (≈ 13.4 µM). For the same compound, the “MIC” value (Serratia marcescens [7]) was 100 µg/mL (≈ 476 µM), the MIC (S. aureus BAA1762) was 75 µg/mL (≈ 357 µM) and the “MIC” value (Salmonella enterides T-1) was 12.5 µg/mL (≈ 59.4 µM).
